Laboratory results as given in patent US20160050958A1, “IMPROVED SWEETENER” (TATE & LYLE INGREDIENTS AMERICAS LLC, priority 2013, published 2016).

Columns and labels:
[1] = Round table sweetness evaluation by test panelists (SEV determination against sucrose references); conditions: samples made to equal sweet 10 SEV in neutral pH water, room temperature; references 4-14% sucrose
Protocol: Round table evaluations were performed with test panelists. Equal sweet 10 SEV concentrations in neutral pH water were made for allulose, AceK and fructose, as well as a composition comprising allulose, AceK and fructose. The components of the test compositions are described in the below tables. The mixed compositions were calculated using the Beidler mixture equation for the sweeteners. The Beidler mixture equation for sweeteners is as follows: […]
The concentration of each component in the mixture in ppm is divided by SEV (c/R) and is plotted against concentration, c. The slope of the linear regression is […]. The y-intercept of the linear regression multiplied by Rmax is the half-maximal sweetness concentration, 1/K. Rmax and 1/K are the two parameters used in the Beidler equation
The equal-molar mixture was tested against reference samples for the panelists to determine SEV values. […] The test samples were served in 2 ounce soufflé cups (approximately 60 ml) coded with 3-digit codes at room temperature. A two minute wait period between samples was enforced. Water and unsalted crackers was available for the panelists to clear their palates before and during testing. EyeQuestion was used for ballot development and recording of results. Results were collected in EyeQuestion for calculating approximate SEV level of each test sample.
The test products analyzed in this experiment are described below in Table 1.

[2] = % of the sweetness of sucrose; cited from earlier work

**Q.** For O=C(CO)[C@@H](O)[C@H](O)[C@H](O)CO [Fructose, fructose], which “Mean sucrose equivalent value (SEV)” value [1] is on record?
**A.** The value was 10.14.

**Q.** And the “Median sucrose equivalent value (SEV)” value [1]?
**A.** Its value is 10.

**Q.** Which “Sweetness relative to sucrose” value [2] does the source give for O=C(CO)C(O)C(O)C(O)CO (stereo not shown) [Allulose, allulose] here?
**A.** The value was “around 70%”.

**Q.** What about the “Mean sucrose equivalent value (SEV)” value [1] of the same compound?
**A.** Its value is 10.14.

**Q.** And the “Median sucrose equivalent value (SEV)” value [1]?
**A.** Its value is 10.

**Q.** What does the source list for CC1=CC(=O)[N-]S(=O)(=O)O1.[K+] [AceK, potassium salt of 6-methyl-1,2,3-oxathiazine-4(3H)-one 2,2-dioxide]?
**A.** Mean sucrose equivalent value (SEV) [1]: 9.286; Median sucrose equivalent value (SEV) [1]: 8
